Laboratory results taken from patent publication US20150079000A1, “Labelled Quinoxaline Derivatives as Multimodal Radiopharmaceuticals and Their Precursors” (INSTITUT NATIONAL DE LA SANTET DE LA RECHERCHE MEDICALE, priority 2012, published 2015).

System: B16 murine melanoma tumours
Assay: Ex vivo biodistribution study for compound [125I](1)
Format: in vivo, C57BL/6J mice
Description: Twenty four B16BL6 primary melanoma bearing mice were intravenously injected with 2.2 MBq of [^1251]1 and sacrificed 1 h, 3 h, 6 h, 24 h, 72 h and 10 days after tracer injection (n=4/time point). Tumours and major organs and tissues were promptly excised, harvested, weighted and their radioactivity counted using a calibrated γ-counter with a […] energy window. After radioactive decay correction, results were expressed as percentage of injected dose per gram of tissue (% ID/g).

CCN(CCNC(=O)c1cnc2cc([125I])ccc2n1)CCOCCOCCOCCF [[^125I](1)]
% ID/g Adipose (1 h p.i.): 0.61 ± 0.01 % ID/g
% ID/g Blood (1 h p.i.): 0.97 ± 0.07 % ID/g
% ID/g Bones (1 h p.i.): 0.79 ± 0.09 % ID/g
% ID/g Brain (1 h p.i.): 0.27 ± 0.03 % ID/g
% ID/g Ceacum (1 h p.i.): 4.97 ± 3.01 % ID/g
% ID/g Colon (1 h p.i.): 4.51 ± 4.40 % ID/g
% ID/g Heart (1 h p.i.): 1.17 ± 0.07 % ID/g
% ID/g Kidney (1 h p.i.): 4.75 ± 0.71 % ID/g
% ID/g Liver (1 h p.i.): 6.33 ± 1.69 % ID/g
% ID/g Lung (1 h p.i.): 3.12 ± 0.42 % ID/g
% ID/g Muscle (1 h p.i.): 0.55 ± 0.16 % ID/g
% ID/g Pancreas (1 h p.i.): 2.96 ± 0.15 % ID/g
% ID/g Skin (1 h p.i.): 1.04 ± 0.06 % ID/g
% ID/g Small intestine (1 h p.i.): 16.68 ± 10.70 % ID/g
% ID/g Spleen (1 h p.i.): 2.14 ± 0.20 % ID/g
% ID/g Stomach (1 h p.i.): 9.2 ± 1.49 % ID/g
% ID/g Testes (1 h p.i.): 0.68 ± 0.19 % ID/g
% ID/g Adipose (3 h p.i.): 0.36 ± 0.05 % ID/g
% ID/g Blood (3 h p.i.): 0.82 ± 0.05 % ID/g
% ID/g Bones (3 h p.i.): 0.48 ± 0.03 % ID/g
% ID/g Brain (3 h p.i.): 0.15 ± 0.01 % ID/g
% ID/g Ceacum (3 h p.i.): 25.73 ± 7.88 % ID/g
% ID/g Colon (3 h p.i.): 21.19 ± 18.02 % ID/g
% ID/g Heart (3 h p.i.): 0.77 ± 0.05 % ID/g
% ID/g Kidney (3 h p.i.): 3.14 ± 1.27 % ID/g
% ID/g Liver (3 h p.i.): 3.37 ± 0.14 % ID/g
% ID/g Lung (3 h p.i.): 2.14 ± 0.27 % ID/g
% ID/g Muscle (3 h p.i.): 0.30 ± 0.04 % ID/g
% ID/g Pancreas (3 h p.i.): 1.48 ± 0.07 % ID/g
% ID/g Skin (3 h p.i.): 1.34 ± 0.72 % ID/g
% ID/g Small intestine (3 h p.i.): 4.16 ± 0.70 % ID/g
% ID/g Spleen (3 h p.i.): 2.37 ± 2.58 % ID/g
% ID/g Stomach (3 h p.i.): 4.53 ± 0.94 % ID/g
% ID/g Testes (3 h p.i.): 0.54 ± 0.03 % ID/g
% ID/g Adipose (6 h p.i.): 0.19 ± 0.06 % ID/g
% ID/g Blood (6 h p.i.): 0.62 ± 0.20 % ID/g
% ID/g Bones (6 h p.i.): 0.30 ± 0.10 % ID/g
% ID/g Brain (6 h p.i.): 0.08 ± 0.03 % ID/g
% ID/g Ceacum (6 h p.i.): 23.31 ± 16.47 % ID/g
% ID/g Colon (6 h p.i.): 15.92 ± 9.97 % ID/g
% ID/g Heart (6 h p.i.): 0.46 ± 0.17 % ID/g
% ID/g Kidney (6 h p.i.): 1.56 ± 0.82 % ID/g
% ID/g Liver (6 h p.i.): 2.02 ± 0.64 % ID/g
% ID/g Lung (6 h p.i.): 1.04 ± 0.37 % ID/g
% ID/g Muscle (6 h p.i.): 0.17 ± 0.07 % ID/g
% ID/g Pancreas (6 h p.i.): 0.65 ± 0.18 % ID/g
% ID/g Skin (6 h p.i.): 0.62 ± 0.31 % ID/g
% ID/g Small intestine (6 h p.i.): 2.23 ± 1.35 % ID/g
% ID/g Spleen (6 h p.i.): 6.45 ± 8.15 % ID/g
% ID/g Stomach (6 h p.i.): 7.39 ± 4.08 % ID/g
% ID/g Testes (6 h p.i.): 0.36 ± 0.08 % ID/g
% ID/g Adipose (24 h p.i.): 0.028 ± 0.00 % ID/g
% ID/g Blood (24 h p.i.): 0.06 ± 0.01 % ID/g
% ID/g Bones (24 h p.i.): 0.03 ± 0.00 % ID/g
% ID/g Brain (24 h p.i.): 0.01 ± 0.01 % ID/g
% ID/g Ceacum (24 h p.i.): 0.41 ± 0.13 % ID/g
% ID/g Colon (24 h p.i.): 0.69 ± 0.23 % ID/g
% ID/g Heart (24 h p.i.): 0.16 ± 0.06 % ID/g
% ID/g Kidney (24 h p.i.): 0.15 ± 0.02 % ID/g
% ID/g Liver (24 h p.i.): 0.46 ± 0.10 % ID/g
% ID/g Lung (24 h p.i.): 0.08 ± 0.01 % ID/g
% ID/g Muscle (24 h p.i.): 0.02 ± 0.00 % ID/g
% ID/g Pancreas (24 h p.i.): 0.05 ± 0.01 % ID/g
% ID/g Skin (24 h p.i.): 0.17 ± 0.00 % ID/g
